Results as given in patent publication US20110009421A1, “COMPOUND HAVING 6-MEMBERED AROMATIC RING” (TAKEDA PHARMACEUTICAL COMPANY LIMITED, priority 2008, published 2011).
Where a name gives a salt, the structure may show the parent alone.

Target: T1, human GPR52 (Homo sapiens, UniProt Q9Y2T5)
T1 construct: expressed in transfected cells; host or cells: CHO (dhfr-) cells
Assay: Increased intracellular cAMP levels in human GPR52 expression CHO cells (AlphaScreen cAMP assay)
Format: cell-based
Conditions: 1 μM test compound, 30 min at 37° C., human GPR52 expression CHO (dhfr−) cells; intracellular cAMP level, 100% = 1 μM 3-(6-(2-(3,4-dimethoxyphenyl)ethoxy)pyridin-2-yl)-N-(2-pyrrolidin-1-ylethyl)benzamide, 0% = DMSO
Procedure: Increased Intracellular cAMP Levels in Human GPR52 Expression CHO Cells
1×10^4 human GPR52 expression CHO (dhfr−) cells were incubated with 1 μM test compound for 30 min at 37° C. in 30 μL assay buffer (HBSS (containing Ca^2+ and Mg^2+), 0.5% BSA, 100 μM IBMX, 100 μM Ro 20-1724, 5 mM HEPES (pH 7.55)) using an OptiPlate-384 (by PerkinElmer). The intracellular cAMP level was then assayed with an EnVision (by PerkinElmer) according to the protocol of the AlphaScreen cAMP Assay Kit (by PerkinElmer). The GPR52 agonist activity was calculated, assuming the intracellular cAMP level to be 100% in the presence of 1 μM of 3-(6-(2-(3,4-dimethoxyphenyl)ethoxy)pyridin-2-yl)-N-(2-pyrrolidin-1-ylethyl)benzamide obtained in Reference Example 39 and assuming the intracellular cAMP level to be 0% when DMSO was added instead of test compound.

T1 sequence (Q9Y2T5 whole entry): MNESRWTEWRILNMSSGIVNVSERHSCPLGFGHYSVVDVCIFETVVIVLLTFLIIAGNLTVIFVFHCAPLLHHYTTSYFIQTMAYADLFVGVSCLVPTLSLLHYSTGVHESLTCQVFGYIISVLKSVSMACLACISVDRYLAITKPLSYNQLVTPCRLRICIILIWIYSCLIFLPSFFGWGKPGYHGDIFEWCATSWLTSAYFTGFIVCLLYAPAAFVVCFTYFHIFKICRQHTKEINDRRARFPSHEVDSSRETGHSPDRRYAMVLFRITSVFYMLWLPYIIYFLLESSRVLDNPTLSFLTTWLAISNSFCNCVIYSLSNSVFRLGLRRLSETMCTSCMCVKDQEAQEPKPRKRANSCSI

Row | SMILES | GPR52 agonist activity (%)
1 | COc1ccc(CCNc2nccc(-c3cccc(NC(C)=O)c3)n2)cc1OC [Working Example 1, N-(3-(2-(2-(3,4-dimethoxyphenyl)ethylamino)pyrimidin-4-yl)phenyl)acetamide] | 69
2 | COc1cccc(C(=O)Nc2cccc(-c3ccnc(NCCc4ccc(OC)c(OC)c4)n3)c2)c1 [Working Example 12, N-(3-(2-(2-(3,4-dimethoxyphenyl)ethylamino)pyrimidin-4-yl)phenyl)-3-methoxybenzamide] | 47
3 | COc1ccc(CCNc2nccc(-c3cccc(NC(=O)CCCN4CCCC4)c3)n2)cc1OC [Working Example 19] | 85
4 | COc1ccc(CCNc2nccc(-c3cccc(NC(=O)C4CCNCC4)c3)n2)cc1OC [Working Example 22, N-(3-(2-((2-(3,4-dimethoxyphenyl)ethyl)amino)pyrimidin-4-yl)phenyl)piperidine-4-carboxamide hydrochloride] | 80
5 | COc1ccc(CCNc2nccc(-c3cccc(NC(=O)CC4CCCN4)c3)n2)cc1OC (centres unmarked) [Working Example 25, N-(3-(2-((2-(3,4-Dimethoxyphenyl)ethyl)amino)pyrimidin-4-yl)phenyl)-2-pyrrolidin-2-yl acetamide hydrochloride] | 71
6 | COc1ccc(CCNc2nccc(-c3cccc(NC(=O)CC4CCCN4C)c3)n2)cc1OC (centres unmarked) [Working Example 28, N-(3-(2-((2-(3,4-dimethoxyphenyl)ethyl)amino)pyrimidin-4-yl)phenyl)-2-(1-methylpyrrolidin-2-yl)acetamide hydrochloride] | 74
7 | COc1ccc(CCNc2nccc(-c3cccc(NC(=O)CCN(C)C)c3)n2)cc1OC [Working Example 29, N-(3-(2-((2-(3,4-dimethoxyphenyl)ethyl)amino)pyrimidin-4-yl)phenyl)-N^3,N^3-dimethyl-β-alaninamide] | 85
8 | COc1ccc(CCNc2nccc(-c3cccc(NC(=O)CCCN4CCCCC4)c3)n2)cc1OC [Working Example 31, N-(3-(2-(2-(3,4-Dimethoxy-phenyl)ethylamino)pyrimidin-4-yl)phenyl)-4-(piperidin-1-yl)butanamide] | 98
9 | COc1ccc(CCNc2nccc(-c3cccc(C(=O)N(C)CCCN(C)C)c3)n2)cc1OC [Working Example 37, 3-(2-(2-(3,4-Dimethoxyphenyl)ethylamino)pyrimidin-4-yl)-N-(3-dimethylaminopropyl)-N-methylbenzamide hydrochloride] | 92
10 | COc1ccc(CCOc2cccc(-c3cccc(C(=O)NCCN4CCCC4)c3)n2)cc1OC [Working Example 39, 3-(6-(2-(3,4-dimethoxyphenyl)ethoxy)pyridin-2-yl)-N-(2-pyrrolidin-1-ylethyl)benzamide] | 106
11 | COc1ccc(CCOc2cccc(-c3cccc(C(=O)NCCN4CCCC4)c3)c2)cc1OC [Working Example 40, 3′-(2-(3,4-Dimethoxyphenyl)ethoxy)-N-(2-pyrrolidin-1-ylethyl)biphenyl-3-carboxamide] | 87
12 | COc1ccc(CCOc2cccc(-c3cccc(C(=O)NC4CCOCC4)c3)n2)cc1OC [Working Example 41, 3-(6-(2-(3,4-Dimethoxyphenyl)ethoxy)pyridin-2-yl)-N-(tetrahydro-2H-pyran-4-yl)benzamide] | 56
13 | COc1ccc(CCOc2cc(-c3cccc(C(=O)NCCN4CCCC4)c3)ccn2)cc1OC [Working Example 42, 3-(2-(2-(3,4-Dimethoxyphenyl)ethoxy)pyridin-4-yl)-N-(2-pyrrolidin-1-ylethyl)benzamide] | 71
14 | COc1ccc(CCOc2cncc(-c3cccc(C(=O)NCCN4CCCC4)c3)c2)cc1OC [Working Example 44, 3-(5-(2-(3,4-Dimethoxyphenyl)ethoxy)pyridin-3-yl)-N-(2-pyrrolidin-1-ylethyl)benzamide] | 68
15 | COc1ccc(CCOc2ccnc(-c3cccc(C(=O)NCCN4CCCC4)c3)n2)cc1OC [Working Example 45, 3-(4-(2-(3,4-Dimethoxyphenyl)ethoxy)pyrimidin-2-yl)-N-(2-pyrrolidin-1-ylethyl)benzamide] | 85
16 | COc1ccc(CCOc2nccc(-c3cccc(C(=O)NCCN4CCCC4)c3)n2)cc1OC [Working Example 46, 3-(2-(2-(3,4-Dimethoxyphenyl)ethoxy)pyrimidin-4-yl)-N-(2-pyrrolidin-1-ylethyl)benzamide] | 99
17 | COc1ccc(CCOc2cccc(-c3cccc(C(N)=O)c3)n2)cc1OC [Working Example 49] | 55
18 | COc1ccc(CCOc2cccc(-c3cccc(NC(=O)NCCN(C)C)c3)n2)cc1OC [Working Example 53] | 113

Row | SMILES | GPR52 agonist activity (%)
19 | Cc1cccc(CCOc2cccc(-c3cccc(C(=O)NCCO)c3)n2)c1 [Working Example 59, N-(2-Hydroxyethyl)-3-(6-(2-(3-methylphenyl)ethoxy)pyridin-2-yl)benzamide] | 84
20 | O=C(Nc1nccs1)c1cccc(-c2cccc(OCCc3cccc(F)c3)n2)c1 [Working Example 61, 3-(6-(2-(3-Fluorophenyl)ethoxy)pyridin-2-yl)-N-1,3-thiazol-2-ylbenzamide] | 43
21 | O=C(NCCO)c1cccc(-c2cccc(OCCc3cccc(C(F)(F)F)c3)n2)c1 [Working Example 65, N-(2-hydroxyethyl)-3-(6-(2-(3-(trifluoromethyl)phenyl)ethoxy)pyridin-2-yl)benzamide] | 64
22 | COc1cccc(CCOc2cccc(-c3cccc(C(=O)NC4CCOCC4)c3)n2)c1 [Working Example 67, 3-(6-(2-(3-Methoxyphenyl)ethoxy)pyridin-2-yl)-N-(tetrahydro-2H-pyran-4-yl)benzamide] | 48
23 | COc1cccc(CCOc2cccc(-c3cccc(C(=O)NCCO)c3)n2)c1 [Working Example 69, N-(2-hydroxyethyl)-3-(6-(2-(3-methoxyphenyl)ethoxy)pyridin-2-yl)benzamide] | 65
24 | COc1cccc(CCOc2cccc(-c3cccc(C(=O)Nc4ccc(F)nc4)c3)n2)c1 [Working Example 75, N-(6-Fluoropyridin-3-yl)-3-(6-(2-(3-methoxyphenyl)ethoxy)pyridin-2-yl)benzamide] | 60
25 | COc1cccc(CCOc2cccc(-c3cccc(C(=O)Nc4ccccn4)c3)n2)c1 [Working Example 76, 3-(6-(2-(3-Methoxyphenyl)ethoxy)pyridin-2-yl)-N-pyridin-2-ylbenzamide] | 52
26 | O=C(NCCN1CCCC1)c1cccc(-c2cccc(Oc3ccc(Cl)c(Cl)c3)n2)c1 [Working Example 82, 3-(6-(3,4-Dichlorophenoxy)pyridin-2-yl)-N-(2-pyrrolidin-1-ylethyl)benzamide] | 64
27 | O=C(NCCN1CCCC1)c1cccc(-c2cccc(Oc3cccc(Cl)c3Cl)n2)c1 [Working Example 83, 3-(6-(2,3-Dichlorophenoxy)pyridin-2-yl)-N-(2-pyrrolidin-1-ylethyl)benzamide] | 97
28 | O=C(NCCO)c1cccc(-c2cccc(Oc3cc(Cl)cc(Cl)c3)n2)c1 [Working Example 87, 3-(6-(3,5-dichlorophenoxy)pyridin-2-yl)-N-(2-hydroxyethyl)benzamide] | 79
29 | O=C(NCCCO)c1cccc(-c2cccc(Oc3cc(Cl)cc(Cl)c3)n2)c1 [Working Example 88, 3-(6-(3,5-Dichlorophenoxy)pyridin-2-yl)-N-(3-hydroxypropyl)benzamide] | 62
30 | CC(C)(CO)NC(=O)c1cccc(-c2cccc(Oc3cc(Cl)cc(Cl)c3)n2)c1 [Working Example 91, 3-(6-(3,5-Dichlorophenoxy)pyridin-2-yl)-N-(2-hydroxy-1,1-dimethylethyl)benzamide] | 61
31 | C[C@H](CC#N)NC(=O)c1cccc(-c2cccc(Oc3cc(Cl)cc(Cl)c3)n2)c1 [Working Example 94, N-((1R)-2-Cyano-1-methylethyl)-3-(6-(3,5-dichlorophenoxy)pyridin-2-yl)benzamide] | 58
32 | C[S+]([O-])CCNC(=O)c1cccc(-c2cccc(Oc3cc(Cl)cc(Cl)c3)n2)c1 (centres unmarked) [Working Example 96, 3-(6-(3,5-dichlorophenoxy)pyridin-2-yl)-N-(2-(methylsulfinyl)ethyl)benzamide] | 66
33 | O=C(NCCO)c1cccc(-c2cccc(Sc3ccc(Cl)cc3Cl)n2)c1 [Working Example 101, 3-(6-((2,4-dichlorophenyl)thio)pyridin-2-yl)-N-(2-hydroxyethyl)benzamide] | 53
34 | COc1ccc(CCNc2nccc(-n3ccc4cc(C(=O)NCCN(C)C)ccc43)n2)cc1OC [Working Example 102, 1-(2-((2-(3,4-Dimethoxyphenyl)ethyl)amino)pyrimidin-4-yl)-N-(2-(dimethylamino)ethyl)-1H-indole-5-carboxamide] | 89
35 | N#CCCNC(=O)c1cc(-c2cccc(Oc3ccc(Cl)cc3Cl)n2)ccc1F [Working Example 113, N-(2-cyanoethyl)-5-(6-(2,4-dichlorophenoxy)pyridin-2-yl)-2-fluorobenzamide] | 77
